Measured values published in ChEMBL document CHEMBL1201862, “PubChem BioAssay data set” (2004).
Values belong to the compound of their own block, whether it stands above or below them. Active and inactive are the calls of the source.

Columns and labels:
[1] = viability of PTEN-deleted HCT116 cells – cell-based, HCT116 PTEN knockout, dose response (AID 1047); type: functional;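 further: HCT116 colon tumor cells with PTEN knocked out; cells exposed to compound for 60 hours before readout; potency for loss of cell viability measured by luminescence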
[2] = molecular target: T1, Short transient receptor potential channel 4 (Mus musculus, UniProt Q9QUQ5); experiment: calcium entry via TRPC4 opening agents – cell-based, HEK293 TRPC4/mu-opioid, Fluo-4 calcium, dose response (AID 434937); type: functional
T1 sequence (Q9QUQ5 whole entry): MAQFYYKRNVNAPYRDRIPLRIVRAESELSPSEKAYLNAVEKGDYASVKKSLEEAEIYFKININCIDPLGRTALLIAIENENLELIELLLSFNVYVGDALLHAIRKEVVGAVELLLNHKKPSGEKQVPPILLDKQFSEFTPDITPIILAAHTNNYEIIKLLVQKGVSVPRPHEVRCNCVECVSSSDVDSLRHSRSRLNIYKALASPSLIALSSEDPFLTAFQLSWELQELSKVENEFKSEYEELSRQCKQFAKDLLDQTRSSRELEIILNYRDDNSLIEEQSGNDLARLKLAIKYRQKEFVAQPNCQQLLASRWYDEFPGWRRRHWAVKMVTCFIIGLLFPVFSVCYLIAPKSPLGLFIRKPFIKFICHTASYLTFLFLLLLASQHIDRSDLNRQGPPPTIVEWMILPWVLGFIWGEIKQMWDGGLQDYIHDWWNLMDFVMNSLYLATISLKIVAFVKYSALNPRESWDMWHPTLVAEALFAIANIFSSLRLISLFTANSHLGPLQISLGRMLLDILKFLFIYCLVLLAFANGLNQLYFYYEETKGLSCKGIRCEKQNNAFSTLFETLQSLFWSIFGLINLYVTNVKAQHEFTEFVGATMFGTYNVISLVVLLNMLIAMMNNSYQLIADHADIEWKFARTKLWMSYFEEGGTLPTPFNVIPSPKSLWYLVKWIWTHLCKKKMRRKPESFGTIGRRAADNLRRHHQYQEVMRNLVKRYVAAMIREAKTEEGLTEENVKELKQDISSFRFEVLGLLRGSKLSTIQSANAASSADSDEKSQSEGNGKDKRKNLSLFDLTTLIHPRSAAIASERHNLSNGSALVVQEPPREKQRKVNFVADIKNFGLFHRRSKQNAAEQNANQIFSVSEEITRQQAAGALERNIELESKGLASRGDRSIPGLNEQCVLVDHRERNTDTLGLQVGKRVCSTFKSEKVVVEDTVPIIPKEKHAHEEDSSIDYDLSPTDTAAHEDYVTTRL

[3] = viability of HCT116 lacking mutant beta-catenin – cell-based, human colon tumor, dose response (AID 1045); type: functional;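 further: HCT116 colon tumor cells with beta catenin knocked out; cells exposed to compound for 60 hours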
[4] = molecular target: Voltage-dependent T-type calcium channel subunit alpha-1H (Homo sapiens, UniProt O95180); type: functional;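 further: channel activity triggered by adding a high calcium stimulation buffer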
Voltage-dependent T-type calcium channel subunit alpha-1H, sequence (O95180 whole entry): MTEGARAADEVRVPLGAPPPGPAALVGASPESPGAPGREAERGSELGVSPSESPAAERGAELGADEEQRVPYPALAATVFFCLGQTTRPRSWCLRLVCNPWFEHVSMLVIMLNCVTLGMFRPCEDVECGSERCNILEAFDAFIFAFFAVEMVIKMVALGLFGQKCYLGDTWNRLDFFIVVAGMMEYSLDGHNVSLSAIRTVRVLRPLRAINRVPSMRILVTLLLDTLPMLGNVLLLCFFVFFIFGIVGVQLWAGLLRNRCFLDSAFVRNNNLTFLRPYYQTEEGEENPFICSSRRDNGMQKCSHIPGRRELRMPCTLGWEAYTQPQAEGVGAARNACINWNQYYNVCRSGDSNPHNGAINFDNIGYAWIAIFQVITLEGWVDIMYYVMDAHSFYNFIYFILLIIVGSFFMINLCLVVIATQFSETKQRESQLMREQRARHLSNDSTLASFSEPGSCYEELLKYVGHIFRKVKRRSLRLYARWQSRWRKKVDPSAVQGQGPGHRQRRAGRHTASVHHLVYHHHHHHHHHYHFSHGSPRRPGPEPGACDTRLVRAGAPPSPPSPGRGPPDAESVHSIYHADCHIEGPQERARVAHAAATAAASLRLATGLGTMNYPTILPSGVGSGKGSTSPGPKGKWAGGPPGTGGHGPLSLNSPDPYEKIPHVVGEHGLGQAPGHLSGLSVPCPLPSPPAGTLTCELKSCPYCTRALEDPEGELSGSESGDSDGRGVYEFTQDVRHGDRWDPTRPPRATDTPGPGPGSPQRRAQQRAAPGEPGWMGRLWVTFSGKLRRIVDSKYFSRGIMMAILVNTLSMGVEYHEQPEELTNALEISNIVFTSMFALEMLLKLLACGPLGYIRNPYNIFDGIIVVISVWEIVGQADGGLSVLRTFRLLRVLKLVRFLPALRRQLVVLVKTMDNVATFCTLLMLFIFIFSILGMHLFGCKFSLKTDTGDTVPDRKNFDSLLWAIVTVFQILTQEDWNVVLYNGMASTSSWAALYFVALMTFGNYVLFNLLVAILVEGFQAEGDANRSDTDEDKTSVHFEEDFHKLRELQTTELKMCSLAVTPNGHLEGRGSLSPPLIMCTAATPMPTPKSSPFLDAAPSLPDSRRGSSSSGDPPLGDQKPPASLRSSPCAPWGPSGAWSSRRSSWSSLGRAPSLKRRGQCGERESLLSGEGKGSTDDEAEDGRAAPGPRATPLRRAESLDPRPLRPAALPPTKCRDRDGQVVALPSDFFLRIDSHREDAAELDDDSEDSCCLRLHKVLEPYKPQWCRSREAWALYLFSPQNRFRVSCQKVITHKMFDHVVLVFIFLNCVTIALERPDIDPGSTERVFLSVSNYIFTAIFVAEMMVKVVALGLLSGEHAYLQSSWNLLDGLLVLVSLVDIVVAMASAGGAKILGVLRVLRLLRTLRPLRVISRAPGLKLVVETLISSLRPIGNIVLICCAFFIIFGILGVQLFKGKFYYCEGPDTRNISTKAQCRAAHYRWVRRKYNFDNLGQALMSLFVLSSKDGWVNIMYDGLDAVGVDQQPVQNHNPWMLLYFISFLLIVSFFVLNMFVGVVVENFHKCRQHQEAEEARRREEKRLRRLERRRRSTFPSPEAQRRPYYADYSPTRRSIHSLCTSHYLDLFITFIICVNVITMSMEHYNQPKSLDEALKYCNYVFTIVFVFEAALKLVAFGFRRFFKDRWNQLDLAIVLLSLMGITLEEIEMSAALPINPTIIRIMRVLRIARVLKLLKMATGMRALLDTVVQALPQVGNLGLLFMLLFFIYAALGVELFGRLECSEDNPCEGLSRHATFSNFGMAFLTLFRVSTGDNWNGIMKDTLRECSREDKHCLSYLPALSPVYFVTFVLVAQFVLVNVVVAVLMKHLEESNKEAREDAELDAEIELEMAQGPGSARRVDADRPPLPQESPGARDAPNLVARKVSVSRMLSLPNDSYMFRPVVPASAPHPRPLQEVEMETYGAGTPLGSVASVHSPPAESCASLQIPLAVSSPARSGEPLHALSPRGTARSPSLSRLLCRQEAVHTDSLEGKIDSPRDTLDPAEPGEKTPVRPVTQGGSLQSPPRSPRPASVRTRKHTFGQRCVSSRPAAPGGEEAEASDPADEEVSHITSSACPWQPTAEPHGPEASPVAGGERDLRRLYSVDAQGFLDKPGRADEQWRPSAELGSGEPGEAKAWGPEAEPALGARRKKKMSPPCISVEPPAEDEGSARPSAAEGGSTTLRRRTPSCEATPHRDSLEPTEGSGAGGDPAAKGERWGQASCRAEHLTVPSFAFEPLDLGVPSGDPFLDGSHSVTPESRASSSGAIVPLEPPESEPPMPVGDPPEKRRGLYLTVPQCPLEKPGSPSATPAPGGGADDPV

[5] = molecular target: T1, Short transient receptor potential channel 4; experiment: block of DAMGO-driven TRPC4 calcium entry – cell-based, HEK293 TRPC4/mu-opioid, Fluo-4 calcium, dose response (AID 434942); type: functional;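 further: potency of inhibitors blocking the TRPC4 calcium response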
[6] = molecular target: T2, Apoptotic protease-activating factor 1 (Homo sapiens, UniProt O14727); type: functional
T2 sequence (O14727 whole entry): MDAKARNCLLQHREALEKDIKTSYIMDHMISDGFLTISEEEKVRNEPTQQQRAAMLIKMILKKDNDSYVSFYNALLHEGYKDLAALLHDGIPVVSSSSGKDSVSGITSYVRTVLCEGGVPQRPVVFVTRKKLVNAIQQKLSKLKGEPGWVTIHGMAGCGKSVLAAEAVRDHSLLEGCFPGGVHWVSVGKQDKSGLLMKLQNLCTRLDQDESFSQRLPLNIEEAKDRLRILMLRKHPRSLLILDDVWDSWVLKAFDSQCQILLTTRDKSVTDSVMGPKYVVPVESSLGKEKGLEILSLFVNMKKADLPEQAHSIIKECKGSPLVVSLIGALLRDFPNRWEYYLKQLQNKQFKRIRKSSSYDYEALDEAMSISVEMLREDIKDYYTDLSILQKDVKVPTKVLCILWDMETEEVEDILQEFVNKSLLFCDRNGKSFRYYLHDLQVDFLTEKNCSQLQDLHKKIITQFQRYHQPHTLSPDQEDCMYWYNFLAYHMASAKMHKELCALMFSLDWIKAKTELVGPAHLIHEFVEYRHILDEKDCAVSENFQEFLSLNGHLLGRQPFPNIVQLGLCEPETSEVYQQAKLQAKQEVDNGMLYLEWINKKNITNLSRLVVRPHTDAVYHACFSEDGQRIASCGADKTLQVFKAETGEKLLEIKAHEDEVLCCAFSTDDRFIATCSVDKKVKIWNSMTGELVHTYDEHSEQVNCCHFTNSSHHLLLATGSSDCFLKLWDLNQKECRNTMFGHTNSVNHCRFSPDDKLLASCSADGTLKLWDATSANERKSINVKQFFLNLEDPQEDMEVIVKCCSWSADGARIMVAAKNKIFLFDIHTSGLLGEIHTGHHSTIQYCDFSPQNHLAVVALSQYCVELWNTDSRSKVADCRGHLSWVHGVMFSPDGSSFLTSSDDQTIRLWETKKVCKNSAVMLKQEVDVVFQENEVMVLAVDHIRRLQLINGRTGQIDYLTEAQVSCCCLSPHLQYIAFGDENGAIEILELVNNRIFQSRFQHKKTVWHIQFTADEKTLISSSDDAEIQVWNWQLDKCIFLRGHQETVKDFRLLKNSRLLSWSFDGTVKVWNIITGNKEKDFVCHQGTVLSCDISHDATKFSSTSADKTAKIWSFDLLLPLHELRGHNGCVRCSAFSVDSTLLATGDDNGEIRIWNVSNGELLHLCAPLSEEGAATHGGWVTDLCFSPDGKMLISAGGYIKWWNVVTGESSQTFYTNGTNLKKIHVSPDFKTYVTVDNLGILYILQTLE

[7] = molecular target: T3, Runt-related transcription factor 1/Core-binding factor subunit beta (Homo sapiens, UniProt Q01196+Q13951); experiment: disruptors of Runt domain/CBFb-SMMHC interaction – biochemical, FRET, Cerulean-Runt, Venus-CBFb-SMMHC, uHTS, […] (AID 1434); type: protein assay
T3 sequence (Q01196 whole entry, the tested form may be a part): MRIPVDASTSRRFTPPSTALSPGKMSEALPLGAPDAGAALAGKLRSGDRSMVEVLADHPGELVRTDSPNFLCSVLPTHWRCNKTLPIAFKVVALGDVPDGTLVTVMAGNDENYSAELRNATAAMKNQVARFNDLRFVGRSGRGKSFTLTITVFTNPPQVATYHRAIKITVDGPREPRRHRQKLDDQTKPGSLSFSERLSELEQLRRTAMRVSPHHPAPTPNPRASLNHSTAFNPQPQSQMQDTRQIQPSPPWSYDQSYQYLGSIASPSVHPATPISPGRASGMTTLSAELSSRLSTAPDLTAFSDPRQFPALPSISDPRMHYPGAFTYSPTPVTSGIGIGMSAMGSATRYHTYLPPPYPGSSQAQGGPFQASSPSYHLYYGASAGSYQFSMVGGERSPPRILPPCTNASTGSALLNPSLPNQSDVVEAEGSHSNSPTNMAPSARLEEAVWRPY
T3 sequence (Q13951 whole entry, the tested form may be a part): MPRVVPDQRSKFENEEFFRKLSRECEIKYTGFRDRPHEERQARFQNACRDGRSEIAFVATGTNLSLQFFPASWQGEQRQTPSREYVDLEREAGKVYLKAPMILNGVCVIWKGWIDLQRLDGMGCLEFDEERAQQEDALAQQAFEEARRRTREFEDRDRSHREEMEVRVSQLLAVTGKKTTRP

[8] = molecular target: T3, Runt-related transcription factor 1/Core-binding factor subunit beta; experiment: Runt domain/CBFb-SMMHC interaction disruptors – biochemical, TR-FRET (AID 1438); type: protein assay
[9] = molecular target: T4, Hexokinase-1 (Homo sapiens, UniProt P19367); experiment: HK1 enzyme activation by HKDC1 hits – biochemical, selectivity assay for HKDC1 activator project, dose response (AID 504762); type: functional
T4 sequence (P19367 whole entry): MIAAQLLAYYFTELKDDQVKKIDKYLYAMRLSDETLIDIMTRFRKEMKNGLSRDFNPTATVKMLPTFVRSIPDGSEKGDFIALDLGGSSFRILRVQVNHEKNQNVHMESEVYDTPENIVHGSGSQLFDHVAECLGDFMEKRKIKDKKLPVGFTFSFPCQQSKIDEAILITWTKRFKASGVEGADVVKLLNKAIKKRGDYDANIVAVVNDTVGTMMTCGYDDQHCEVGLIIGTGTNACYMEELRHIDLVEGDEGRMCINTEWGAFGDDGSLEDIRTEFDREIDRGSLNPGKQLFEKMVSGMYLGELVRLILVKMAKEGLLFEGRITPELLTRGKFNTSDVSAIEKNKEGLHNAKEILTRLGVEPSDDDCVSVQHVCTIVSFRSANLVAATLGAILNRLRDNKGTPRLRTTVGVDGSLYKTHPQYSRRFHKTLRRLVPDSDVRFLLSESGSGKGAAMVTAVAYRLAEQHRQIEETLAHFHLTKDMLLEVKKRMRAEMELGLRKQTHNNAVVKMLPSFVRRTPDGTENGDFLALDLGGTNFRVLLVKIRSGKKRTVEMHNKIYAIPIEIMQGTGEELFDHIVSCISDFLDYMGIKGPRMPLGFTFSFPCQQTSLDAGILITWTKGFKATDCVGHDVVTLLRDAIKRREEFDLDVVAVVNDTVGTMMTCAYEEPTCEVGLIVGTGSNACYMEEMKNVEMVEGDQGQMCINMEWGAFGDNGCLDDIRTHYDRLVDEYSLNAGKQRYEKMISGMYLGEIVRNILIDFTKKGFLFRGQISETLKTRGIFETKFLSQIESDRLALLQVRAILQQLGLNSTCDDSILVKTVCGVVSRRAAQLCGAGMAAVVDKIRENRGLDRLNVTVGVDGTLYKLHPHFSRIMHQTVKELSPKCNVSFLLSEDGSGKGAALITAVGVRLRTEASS

[10] = loss of viability in HepG2 cells – cell-based, CellTiter-Glo, cherry-picked, cytotoxicity control for Shn3 inhibitor project, dose response (AID 624134); type: functional
[11] = reduction of Shn3 3'UTR-driven luciferase in osteoblasts – cell-based, Clone20 osteoblasts, firefly luciferase, cherry-picked, dose response (AID 624132); type: functional;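 further: firefly luciferase luminescence from reporter carrying the Shn3 3'UTR in osteoblasts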
[12] = non-specific 3'UTR reporter inhibition in Clone20-Shn3RL – cell-based, Renilla luciferase, cherry-picked, counter-screen for Shn3 inhibitor project, dose response (AID 624133); type: functional
[13] = test system: INS1; experiment: INS-1E survival protection against cytokine death – cell-based, luminescence, retest, dose response (AID 449756); type: functional; details: Rattus norvegicus;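 further: cell death triggered by IL-1 beta plus TNF-alpha plus IFN-gamma mixture; protective hits raise ATP signal compared with cytokine alone wells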
[14] = molecular target: T5, Hexokinase HKDC1 (Homo sapiens, UniProt Q2TB90); experiment: activation of HKDC1 glucose phosphorylation – biochemical, W721R variant, dose response (AID 504730); type: functional
T5 sequence (Q2TB90 whole entry): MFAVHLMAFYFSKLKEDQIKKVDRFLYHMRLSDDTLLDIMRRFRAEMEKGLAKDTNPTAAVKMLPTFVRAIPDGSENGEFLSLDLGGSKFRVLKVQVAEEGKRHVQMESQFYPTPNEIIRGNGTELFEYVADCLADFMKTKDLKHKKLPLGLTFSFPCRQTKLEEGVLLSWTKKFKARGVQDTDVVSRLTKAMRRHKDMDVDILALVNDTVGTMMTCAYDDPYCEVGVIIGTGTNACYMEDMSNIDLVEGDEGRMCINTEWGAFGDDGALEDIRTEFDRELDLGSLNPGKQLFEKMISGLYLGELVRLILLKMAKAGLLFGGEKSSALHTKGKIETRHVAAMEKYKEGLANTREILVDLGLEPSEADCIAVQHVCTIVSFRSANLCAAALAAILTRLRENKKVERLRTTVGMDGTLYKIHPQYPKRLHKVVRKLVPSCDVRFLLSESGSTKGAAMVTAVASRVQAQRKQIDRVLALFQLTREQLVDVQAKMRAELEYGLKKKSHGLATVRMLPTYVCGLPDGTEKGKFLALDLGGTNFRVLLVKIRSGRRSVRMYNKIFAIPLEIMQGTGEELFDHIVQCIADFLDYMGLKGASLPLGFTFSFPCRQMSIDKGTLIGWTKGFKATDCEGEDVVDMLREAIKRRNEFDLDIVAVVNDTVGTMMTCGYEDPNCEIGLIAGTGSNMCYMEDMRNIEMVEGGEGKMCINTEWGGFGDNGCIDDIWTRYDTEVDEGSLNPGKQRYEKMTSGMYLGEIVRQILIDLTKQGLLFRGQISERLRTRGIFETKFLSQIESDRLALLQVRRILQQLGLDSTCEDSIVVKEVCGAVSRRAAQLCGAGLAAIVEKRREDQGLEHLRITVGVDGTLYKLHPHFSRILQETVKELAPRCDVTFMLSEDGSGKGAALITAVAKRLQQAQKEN

[15] = molecular target: T6, Lysine-specific demethylase 4C (Homo sapiens, UniProt Q9H3R0); experiment: inhibition of JMJD2C H3K9me3 demethylation – biochemical, DELFIA europium, cherry-picked samples, dose response (AID 488835); type: functional
T6 sequence (Q9H3R0 whole entry): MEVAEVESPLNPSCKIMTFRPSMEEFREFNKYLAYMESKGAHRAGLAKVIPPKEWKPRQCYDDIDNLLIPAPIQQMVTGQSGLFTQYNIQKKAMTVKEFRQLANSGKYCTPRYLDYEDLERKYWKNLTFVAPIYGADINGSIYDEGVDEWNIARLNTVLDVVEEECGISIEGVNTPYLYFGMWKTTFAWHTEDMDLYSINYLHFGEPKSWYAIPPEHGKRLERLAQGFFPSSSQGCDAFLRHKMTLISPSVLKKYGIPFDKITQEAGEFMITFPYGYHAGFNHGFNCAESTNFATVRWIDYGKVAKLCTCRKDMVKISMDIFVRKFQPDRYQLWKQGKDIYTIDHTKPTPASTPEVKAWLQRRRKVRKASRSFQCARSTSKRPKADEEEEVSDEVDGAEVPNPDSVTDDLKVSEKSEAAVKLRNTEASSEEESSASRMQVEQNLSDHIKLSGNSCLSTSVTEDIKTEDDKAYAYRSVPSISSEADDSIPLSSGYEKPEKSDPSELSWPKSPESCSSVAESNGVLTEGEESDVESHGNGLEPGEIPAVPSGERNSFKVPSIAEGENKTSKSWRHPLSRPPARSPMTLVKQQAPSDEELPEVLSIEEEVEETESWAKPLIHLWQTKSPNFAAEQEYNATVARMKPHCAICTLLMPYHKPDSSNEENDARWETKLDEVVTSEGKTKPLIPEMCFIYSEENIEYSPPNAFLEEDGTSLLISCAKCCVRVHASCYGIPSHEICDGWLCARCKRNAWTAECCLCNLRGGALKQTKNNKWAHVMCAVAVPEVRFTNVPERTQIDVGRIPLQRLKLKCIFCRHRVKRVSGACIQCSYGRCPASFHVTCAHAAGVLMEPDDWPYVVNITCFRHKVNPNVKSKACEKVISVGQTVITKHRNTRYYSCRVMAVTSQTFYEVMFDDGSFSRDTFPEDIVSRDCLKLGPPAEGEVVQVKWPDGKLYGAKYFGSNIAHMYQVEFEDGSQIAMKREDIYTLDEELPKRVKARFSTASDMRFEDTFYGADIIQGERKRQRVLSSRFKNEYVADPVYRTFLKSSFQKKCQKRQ

SMILES: O=C(CN1CCN(c2ncc(C(F)(F)F)cc2Cl)CC1)N1CCN(c2ncc(C(F)(F)F)cc2Cl)CC1
EC50 [1]: 48.4 µM (active)
EC50 [2]: 3.35 µM (active)
EC50 [3]: 49.1 µM (active)
EC50 [4]: 8.68 µM (active)

EC50 [2]: 4.22 µM (active)
EC50 [5]: 1.33 µM (active)
SMILES: Clc1ccc(COn2c(-c3ccc(Cl)cc3Cl)nc3ncccc32)cc1

SMILES: COCCCNC(=O)c1c(NC(=O)c2ccco2)n(Cc2ccccc2)c2nc3ccccc3nc12
IC50 [6]: > 100 µM (inactive)
IC50 [7]: 0.34 µM (active)
IC50 [8]: 16 µM (active)

SMILES: C=CCn1nc([N+](=O)[O-])nc1Sc1cccc2cccnc12
EC50 [9]: > 80 µM (inactive)
AC50 [10]: 30.3 µM (active)
AC50 [11]: 10.7 µM (active)
AC50 [12]: 7.05 µM (active)
AC50 [13]: 1.24 µM (active)
EC50 [14]: > 80 µM (inactive)

EC50 [9]: 47.4 µM (inactive)
AC50 [15]: 22.3 µM (active)
EC50 [14]: 38.1 µM (inactive)
SMILES: CC(C)(C)c1ccc(-c2csc(NNC3=NCCCCC3)n2)cc1
